Laboratory results taken from US8192962B2, “Processes for detecting toxic substances” (Daikin Industries, Ltd., priority 2001, dated 2012).

Tested on: Genes belonging to other category
Assay: DNA chip mRNA expression in yeast, genes belonging to other category (Table 9)
Assay type: cell-based, Saccharomyces cerevisiae S288C
How it was run: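 S. cerevisiae S288C grown at 25° C in YPD were exposed in log phase for two hours to one toxic chemical at a growth-inhibiting, non-lethal concentration; untreated cells served as control. Poly(A) mRNA was reverse-transcribed with Cy3/Cy5-dUTP and hybridized to a whole-genome yeast DNA chip at 65° C for over 12 hours; values are fluorescence ratios versus untreated.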

[Cl][Pb][Cl] [(4), PbCl2]
The level of expressed mRNA in the presence of chemical substance/The level of expressed mRNA in the absence of chemical substance (yeast gene YAR010C): 0.8 | The level of expressed mRNA in the presence of chemical substance/The level of expressed mRNA in the absence of chemical substance (yeast gene YBL005W-A): 0.9 | The level of expressed mRNA in the presence of chemical substance/The level of expressed mRNA in the absence of chemical substance (yeast gene YBL041W): 1.0 | The level of expressed mRNA in the presence of chemical substance/The level of expressed mRNA in the absence of chemical substance (yeast gene YBL043W): 1.3 | The level of expressed mRNA in the presence of chemical substance/The level of expressed mRNA in the absence of chemical substance (yeast gene YBL078C): 2.6 | The level of expressed mRNA in the presence of chemical substance/The level of expressed mRNA in the absence of chemical substance (yeast gene YBR214W): 2.0 | The level of expressed mRNA in the presence of chemical substance/The level of expressed mRNA in the absence of chemical substance (yeast gene YCL020W): 1.1 | The level of expressed mRNA in the presence of chemical substance/The level of expressed mRNA in the absence of chemical substance (yeast gene YCL027W): 1.0 | The level of expressed mRNA in the presence of chemical substance/The level of expressed mRNA in the absence of chemical substance (yeast gene YCR071C): 0.8 | The level of expressed mRNA in the presence of chemical substance/The level of expressed mRNA in the absence of chemical substance (yeast gene YCR088W): 0.9 | The level of expressed mRNA in the presence of chemical substance/The level of expressed mRNA in the absence of chemical substance (yeast gene YDL008W): 1.1 | The level of expressed mRNA in the presence of chemical substance/The level of expressed mRNA in the absence of chemical substance (yeast gene YDL238C): 1.7 | The level of expressed mRNA in the presence of chemical substance/The level of expressed mRNA in the absence of chemical substance (yeast gene YDR055W): 2.8 | The level of expressed mRNA in the presence of chemical substance/The level of expressed mRNA in the absence of chemical substance (yeast gene YDR084C): 1.1 | The level of expressed mRNA in the presence of chemical substance/The level of expressed mRNA in the absence of chemical substance (yeast gene YDR085C): 3.4 | The level of expressed mRNA in the presence of chemical substance/The level of expressed mRNA in the absence of chemical substance (yeast gene YDR104C): 1.2 | The level of expressed mRNA in the presence of chemical substance/The level of expressed mRNA in the absence of chemical substance (yeast gene YDR115W): 1.5 | The level of expressed mRNA in the presence of chemical substance/The level of expressed mRNA in the absence of chemical substance (yeast gene YDR259C): 1.4 | The level of expressed mRNA in the presence of chemical substance/The level of expressed mRNA in the absence of chemical substance (yeast gene YDR315C): 1.3 | The level of expressed mRNA in the presence of chemical substance/The level of expressed mRNA in the absence of chemical substance (yeast gene YDR358W): 1.1 | The level of expressed mRNA in the presence of chemical substance/The level of expressed mRNA in the absence of chemical substance (yeast gene YDR388W): 1.0 | The level of expressed mRNA in the presence of chemical substance/The level of expressed mRNA in the absence of chemical substance (yeast gene YDR432W): 1.4 | The level of expressed mRNA in the presence of chemical substance/The level of expressed mRNA in the absence of chemical substance (yeast gene YDR481C): 0.7 | The level of expressed mRNA in the presence of chemical substance/The level of expressed mRNA in the absence of chemical substance (yeast gene YDR510W): 1.3 | The level of expressed mRNA in the presence of chemical substance/The level of expressed mRNA in the absence of chemical substance (yeast gene YEL042W): 0.9 | The level of expressed mRNA in the presence of chemical substance/The level of expressed mRNA in the absence of chemical substance (yeast gene YEL066W): 2.2 | The level of expressed mRNA in the presence of chemical substance/The level of expressed mRNA in the absence of chemical substance (yeast gene YER039C): 4.1 | The level of expressed mRNA in the presence of chemical substance/The level of expressed mRNA in the absence of chemical substance (yeast gene YER107C): 0.6 | The level of expressed mRNA in the presence of chemical substance/The level of expressed mRNA in the absence of chemical substance (yeast gene YER130C): 0.8 | The level of expressed mRNA in the presence of chemical substance/The level of expressed mRNA in the absence of chemical substance (yeast gene YFL022C): 0.6 | The level of expressed mRNA in the presence of chemical substance/The level of expressed mRNA in the absence of chemical substance (yeast gene YFL028C): 1.5 | The level of expressed mRNA in the presence of chemical substance/The level of expressed mRNA in the absence of chemical substance (yeast gene YFL043C): 1.2 | The level of expressed mRNA in the presence of chemical substance/The level of expressed mRNA in the absence of chemical substance (yeast gene YGL158W): 12.9 | The level of expressed mRNA in the presence of chemical substance/The level of expressed mRNA in the absence of chemical substance (yeast gene YGL229C): 0.8 | The level of expressed mRNA in the presence of chemical substance/The level of expressed mRNA in the absence of chemical substance (yeast gene YGR136W): 0.7 | The level of expressed mRNA in the presence of chemical substance/The level of expressed mRNA in the absence of chemical substance (yeast gene YGR189C): 3.5 | The level of expressed mRNA in the presence of chemical substance/The level of expressed mRNA in the absence of chemical substance (yeast gene YGR213C): 6.8 | The level of expressed mRNA in the presence of chemical substance/The level of expressed mRNA in the absence of chemical substance (yeast gene YGR257C): 1.1 | The level of expressed mRNA in the presence of chemical substance/The level of expressed mRNA in the absence of chemical substance (yeast gene YHR004C): 1.1 | The level of expressed mRNA in the presence of chemical substance/The level of expressed mRNA in the absence of chemical substance (yeast gene YHR071W): 1.6 | The level of expressed mRNA in the presence of chemical substance/The level of expressed mRNA in the absence of chemical substance (yeast gene YHR139C): 9.3 | The level of expressed mRNA in the presence of chemical substance/The level of expressed mRNA in the absence of chemical substance (yeast gene YHR142W): 0.8 | The level of expressed mRNA in the presence of chemical substance/The level of expressed mRNA in the absence of chemical substance (yeast gene YIL123W): 1.5 | The level of expressed mRNA in the presence of chemical substance/The level of expressed mRNA in the absence of chemical substance (yeast gene YIL140W): 1.4 | The level of expressed mRNA in the presence of chemical substance/The level of expressed mRNA in the absence of chemical substance (yeast gene YJL073W): 0.7 | The level of expressed mRNA in the presence of chemical substance/The level of expressed mRNA in the absence of chemical substance (yeast gene YJL089W): 0.8 | The level of expressed mRNA in the presence of chemical substance/The level of expressed mRNA in the absence of chemical substance (yeast gene YJL116C): 1.9 | The level of expressed mRNA in the presence of chemical substance/The level of expressed mRNA in the absence of chemical substance (yeast gene YJR004C): 0.6 | The level of expressed mRNA in the presence of chemical substance/The level of expressed mRNA in the absence of chemical substance (yeast gene YJR086W): 1.4 | The level of expressed mRNA in the presence of chemical substance/The level of expressed mRNA in the absence of chemical substance (yeast gene YKL008C): 0.8
